In one test the target is T1, cytochrome bd-I (Escherichia coli, UniProt P0ABJ9).
T1 construct: made in house; host or cells: E. coli C43 (DE3) Δ bo3 (CLY)
As to the kind of experiment: Oxygen reductase activity assay (Clark-type electrode) with purified cytochrome bd-I. The note with it: for Rest activity in % of control activity bd-I / remaining activity at 250 µM: compound 250 µM, 200 µM ubiquinone-1, 5 mM dithiothreitol, 30 nM enzyme, RT, 100% = DMSO, mean ± S.E.M. (n=3); for remaining activity at 250 µM: read-out: Rest activity in % of control activity bd-I; for Ki: final enzyme concentration 30 nM, inhibitor concentration at 50% residual oxygen reductase activity (EC50 of DoseResp fit), read-out: Ki^app bd-I. Format: biochemical, E. coli. The source says:
(§1) To determine inhibition of our test set compounds and to assess the selectivity for bd-type oxidases we tested the inhibitory effect via […] determination of oxygen reduction using purified protein samples and ubiquinol-1 as electron donor. In this set-up, we kept the compound at a high molar excess compared to the protein. Figures 3 and 4 illustrate the screening results for cytochromes bd-I, bd-II and bo3, respectively. A comparative overview of all compounds is given in SI Table S1. […]. […] Among these compounds, AC2-11 has the strongest inhibitory effect on all three oxidases. […]. For AurC and its analogues it was reported that replacement of N–OH with an N–H group decreases the inhibitory potential only for cytochrome bo3, keeping a strong inhibitory effect on cytochrome bd[17]. Correspondingly, we observed a clear inhibition of cytochromes bd-I and bd-II with all AurD-type compounds. Regarding the long-chain derivatives AC4-11, AC2-11 and AD3-11, inhibition of cytochromes bd-I and bd-II and bo3 highlight the importance of the residue at the nitrogen group at position 1 for enzyme selectivity. […]. […] Regarding the cyclic derivatives, 7-MTHA causes only a minor inhibition of cytochrome bd-I. This effect could be due to the methoxy group in position 7 that introduces an additional polarity to the molecule. Steric hindrance as a consequence of the third ring structure is less likely, because AD5-cyclo is bulkier and reduces activity < 10% of cytochromes bd-I and bd-II.
(§2) Oxygen reductase activity was measured as oxygen consumption rate of purified protein by OX-MR Clark-type oxygen electrode linked to a PA 2000 picoammeter and to the ADC-216 AD-converter. Data recording with SensorTrace Basic 2.1 software (all Unisense, Denmark). Measurements were performed at RT in stirred 2 ml—glass vials with a total reaction volume of 600 µl. Oxygen consumption was initiated by adding 30 nM (bd-I, bo3) or 120 nM (bd-II) of the respective enzyme to the equilibrated mixture containing 20 mM NaPi (pH 8.0), 50 mM NaCl, 0.02% DDM, 5 mM Dithiothreitol (DTT) and 200 µM Ubiquinone-1 (2,3-Dimethoxy-5-methyl-6-(3-methyl-2-buten-1-yl)-1,4-benzoquinone). A 10 min equilibration period was implemented prior to enzyme addition. Inhibition experiments were performed with 250 µM of the respective compound from 20 mM stock solution in DMSO before equilibration. Data analysis and visualization via Origin Lab Pro 9.5 (Additive GmbH, Germany) Data analysis included an unpaired, two-sided t-test of two samples to check that given residual activities were sufficiently different between proteins (at significance levels p < 0.05, 0.01 or 0.001). HQNO (2-heptyl-4-quinolinol 1-oxide) was purchased from biomol GmbH, Hamburg. […]. The Ki^app value was adopted as the EC50 from the sigmoidal DoseRespFit. Further information can be found in Supporting Information Figures S2 to S5.
Dose response curves were created to rank the compounds due to their inhibition potency. Inhibitors were titrated in presence of 30nM bd-I. From Clark-type electrode monitored oxygen consumption, resulting oxygen reduction activity with 200µM Q1, reduced with 2mM DTT, was calculated as turnover in e^-/s. Turnover values were normalized, followed by a curve fitting with DoseResp Fit (1) in Origin LabPro9.5 (Additive GmbH, Germany). Data points are mean of minimum three independent measurements ± S.E.M.

Another test concerns the target T2, cytochrome bd-II (Escherichia coli, UniProt P26459).
T2 construct: made in house; host or cells: E. coli C43 (DE3) Δ bo3 (CLY)
As to the kind of experiment: Oxygen reductase activity assay (Clark-type electrode) with purified cytochrome bd-II. The note with it: compound 250 µM, 200 µM ubiquinone-1, 5 mM dithiothreitol, 120 nM enzyme, RT, 100% = DMSO, mean ± S.E.M. (n=3); for remaining activity at 250 µM: read-out: Rest activity in % of control activity bd-II. Format: biochemical, E. coli.
Text: as §1, §2

The target of test [1] is T3, cytochrome bo3 (Escherichia coli, UniProt P0ABI8).
T3 construct: made in house; host or cells: E. coli strain GO195 with pIRHisA
Briefly: Oxygen reductase activity assay (Clark-type electrode) with purified cytochrome bo3. Format: biochemical, E. coli. The note with it: for remaining activity at 250 µM / Rest activity in % of control activity bo3: compound 250 µM, 200 µM ubiquinone-1, 5 mM dithiothreitol, 30 nM enzyme, RT, 100% = DMSO, mean ± S.E.M. (n=3); for remaining activity at 250 µM: read-out: Rest activity in % of control activity bo3; for Ki: final enzyme concentration 30 nM, EC50 of DoseResp fit, read-out: Ki^app bo3.
Text: as §1, §2

Test [2] concerns human U-2 OS osteosarcoma cells. Also noted: method as in PMID 23946854. The note with it: upon treatment; cited from earlier work.
Another test relates to B. subtilis. Set-up: method as in PMID 3106289. The note with it: cited from earlier work.
Test [3] relates to multidrug efflux transporter deficient TolC strain of Escherichia coli. The note with it: cited from earlier work.
The target of the next test is cytochrome bd. Also noted: method as in PMID 9880809. The note with it: values in brackets, determined spectrophotometrically; read-out: Ki^app bd-I (previous data) (converted); cited from earlier work.
Test [4] addresses T3, cytochrome bo3. The note with it: values in brackets, determined spectrophotometrically; read-out: Ki^app bo3 (previous data) (converted); cited from earlier work.
Test [5] relates to cytochrome bc1 complex (complex III) from beef heart mitochondria. Also noted: method as in PMID 8206232. The note with it: isolated complex III; cited from earlier work.

Values after ≈ are worked out from the molar mass of the structure shown. Where two headings read alike, the source gives them in different places.

T2 sequence (P26459 whole entry): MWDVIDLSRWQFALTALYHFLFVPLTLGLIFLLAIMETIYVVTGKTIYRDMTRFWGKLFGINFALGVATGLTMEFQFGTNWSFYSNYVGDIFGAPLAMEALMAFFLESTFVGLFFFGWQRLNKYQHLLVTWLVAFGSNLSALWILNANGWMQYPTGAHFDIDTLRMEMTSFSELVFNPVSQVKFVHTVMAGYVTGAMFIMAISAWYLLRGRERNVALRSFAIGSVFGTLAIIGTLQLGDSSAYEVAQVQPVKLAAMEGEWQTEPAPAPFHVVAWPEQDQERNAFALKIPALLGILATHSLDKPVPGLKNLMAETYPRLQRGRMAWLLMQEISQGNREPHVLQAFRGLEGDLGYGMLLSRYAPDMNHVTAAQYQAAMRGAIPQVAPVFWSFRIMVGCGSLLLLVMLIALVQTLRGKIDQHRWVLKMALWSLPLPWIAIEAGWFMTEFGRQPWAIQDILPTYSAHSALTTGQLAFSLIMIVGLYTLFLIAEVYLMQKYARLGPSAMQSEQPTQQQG
T2 sequence (P24244 whole entry, further chain): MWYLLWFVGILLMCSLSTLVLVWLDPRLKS
T2 sequence (P26458 whole entry, further chain): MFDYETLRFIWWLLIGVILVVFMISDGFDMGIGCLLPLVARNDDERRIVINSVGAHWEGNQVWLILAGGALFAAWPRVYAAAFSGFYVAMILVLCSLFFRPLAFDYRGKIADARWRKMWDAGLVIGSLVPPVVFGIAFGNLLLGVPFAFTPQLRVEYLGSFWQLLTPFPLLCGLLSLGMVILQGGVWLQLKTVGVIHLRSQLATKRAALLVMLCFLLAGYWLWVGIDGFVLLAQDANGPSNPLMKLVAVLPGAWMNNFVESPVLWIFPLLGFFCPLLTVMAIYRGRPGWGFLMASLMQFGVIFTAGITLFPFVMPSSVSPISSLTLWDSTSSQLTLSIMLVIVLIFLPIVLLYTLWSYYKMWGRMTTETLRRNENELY
T1 sequence (P0ABJ9 whole entry): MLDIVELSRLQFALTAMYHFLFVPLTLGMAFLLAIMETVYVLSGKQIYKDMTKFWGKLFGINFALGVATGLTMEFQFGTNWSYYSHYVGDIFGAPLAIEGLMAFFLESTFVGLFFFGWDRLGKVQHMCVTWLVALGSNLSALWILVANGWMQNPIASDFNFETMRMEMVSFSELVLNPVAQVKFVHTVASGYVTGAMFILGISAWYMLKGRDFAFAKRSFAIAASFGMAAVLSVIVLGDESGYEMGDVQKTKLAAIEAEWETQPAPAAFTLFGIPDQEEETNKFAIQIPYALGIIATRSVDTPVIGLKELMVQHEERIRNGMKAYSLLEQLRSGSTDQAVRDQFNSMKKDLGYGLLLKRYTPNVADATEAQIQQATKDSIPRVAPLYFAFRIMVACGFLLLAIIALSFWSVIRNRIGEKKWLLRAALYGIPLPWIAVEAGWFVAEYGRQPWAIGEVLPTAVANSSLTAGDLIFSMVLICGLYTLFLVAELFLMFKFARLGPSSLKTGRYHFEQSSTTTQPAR
T1 sequence (P0ABK2 whole entry, further chain): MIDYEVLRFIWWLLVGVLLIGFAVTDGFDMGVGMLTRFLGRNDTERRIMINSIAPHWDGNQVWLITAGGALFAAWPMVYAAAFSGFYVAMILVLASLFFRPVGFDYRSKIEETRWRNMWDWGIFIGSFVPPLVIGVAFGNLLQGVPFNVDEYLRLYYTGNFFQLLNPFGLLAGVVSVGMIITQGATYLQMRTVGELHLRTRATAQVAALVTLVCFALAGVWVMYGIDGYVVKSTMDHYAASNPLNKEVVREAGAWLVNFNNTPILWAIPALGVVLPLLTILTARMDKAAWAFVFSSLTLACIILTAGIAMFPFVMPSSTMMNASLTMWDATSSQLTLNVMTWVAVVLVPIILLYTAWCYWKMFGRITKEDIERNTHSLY
T1 sequence (P56100 whole entry, further chain): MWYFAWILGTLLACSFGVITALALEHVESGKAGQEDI
T3 sequence (P0ABJ3 whole entry): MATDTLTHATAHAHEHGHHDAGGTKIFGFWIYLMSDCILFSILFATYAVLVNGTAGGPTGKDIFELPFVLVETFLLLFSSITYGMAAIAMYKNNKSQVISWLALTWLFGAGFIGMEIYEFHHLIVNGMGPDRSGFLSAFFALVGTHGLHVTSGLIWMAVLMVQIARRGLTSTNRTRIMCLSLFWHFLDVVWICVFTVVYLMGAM
T3 sequence (P0ABJ1 25-315, further chain): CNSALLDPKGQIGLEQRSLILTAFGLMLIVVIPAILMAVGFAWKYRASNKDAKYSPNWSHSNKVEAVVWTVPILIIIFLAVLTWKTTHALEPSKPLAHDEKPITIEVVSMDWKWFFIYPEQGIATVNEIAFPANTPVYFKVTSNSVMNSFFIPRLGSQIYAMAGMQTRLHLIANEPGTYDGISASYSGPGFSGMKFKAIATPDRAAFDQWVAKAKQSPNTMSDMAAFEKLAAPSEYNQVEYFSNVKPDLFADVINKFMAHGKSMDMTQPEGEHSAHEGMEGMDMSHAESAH
T3 sequence (P0ABJ6 whole entry, further chain): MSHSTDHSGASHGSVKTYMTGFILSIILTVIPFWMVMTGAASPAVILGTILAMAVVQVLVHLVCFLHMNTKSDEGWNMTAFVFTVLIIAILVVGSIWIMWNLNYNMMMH
T3 sequence (P0ABI8 whole entry): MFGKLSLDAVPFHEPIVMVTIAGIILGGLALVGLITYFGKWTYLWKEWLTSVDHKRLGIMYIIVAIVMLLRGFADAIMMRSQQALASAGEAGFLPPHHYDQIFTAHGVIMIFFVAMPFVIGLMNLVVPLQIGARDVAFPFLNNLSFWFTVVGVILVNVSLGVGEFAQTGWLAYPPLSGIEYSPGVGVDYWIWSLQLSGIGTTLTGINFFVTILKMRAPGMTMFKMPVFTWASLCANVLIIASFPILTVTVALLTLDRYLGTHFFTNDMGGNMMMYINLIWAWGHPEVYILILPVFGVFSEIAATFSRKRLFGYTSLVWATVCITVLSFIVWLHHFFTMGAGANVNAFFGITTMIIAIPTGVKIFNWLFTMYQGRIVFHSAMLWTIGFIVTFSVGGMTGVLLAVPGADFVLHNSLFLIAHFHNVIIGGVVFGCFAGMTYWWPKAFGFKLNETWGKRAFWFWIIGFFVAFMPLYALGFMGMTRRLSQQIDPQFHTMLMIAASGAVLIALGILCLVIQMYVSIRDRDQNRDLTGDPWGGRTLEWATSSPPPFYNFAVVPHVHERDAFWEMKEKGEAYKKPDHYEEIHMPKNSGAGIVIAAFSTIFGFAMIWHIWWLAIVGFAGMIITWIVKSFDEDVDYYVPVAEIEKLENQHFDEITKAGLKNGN

In the case of `O=c1c2c([nH]c3ccccc13)CCCCC2` [AD5-cyclo], at cytochrome bd-I, the “Rest activity in % of control activity bd-I” value is 5.67 ± 1.14% and the remaining activity at 250 µM is < 10%. On cytochrome bd-II, the “Rest activity in % of control activity bd-II” value is reported as 1.51 ± 0.15%. At cytochrome bo3 [1], the remaining activity at 250 µM was determined as 70.5 ± 2.6%.

Regarding `COc1ccc2[nH]c3c(c(=O)c2c1)CCCC3` [Compound 7-MTHA, 7-methoxy-1,3,4,10-tetrahydro-9(2H)-acridinone, reference compound], the remaining activity at 250 µM worked out at 35.7 ± 5.7% on cytochrome bd-I, 9.6 ± 0.16% on cytochrome bd-II and 69.3 ± 1.7% at cytochrome bo3 [1].

As for `CC(C)=CCC/C(C)=C/CC/C(C)=C/Cc1c(C)[nH]c2ccccc2c1=O` [AurD, Aurachin D], the “mitochondrial membrane potential reduced to” value in test [2] is reported as 50–80%. In addition, the remaining activity at 250 µM on cytochrome bd-I turned out to be 3.93 ± 0.64%; at cytochrome bd-II, 1.62 ± 0.19%; on cytochrome bo3 [1], 30%. Moreover, the minimum inhibitory concentration in the test with B. subtilis is 0.15 µg/mL (≈ 0.413 µM). For the same compound, the antibacterial effect result in [3] is on record as “moderate antibacterial effect”. The “Rest activity in % of control activity bo3” value at cytochrome bo3 [1] is given as 29.9 ± 2.4%. At cytochrome bo3 [1], the Ki was > 10000 nM.

Take `CCCCCCCc1c(CC)[nH]c2ccccc2c1=O` [AD7-2]: the remaining activity at 250 µM amounted to 1.89 ± 1.8% on cytochrome bd-I, 1.4 ± 0.49% at cytochrome bd-II and 33.3 ± 1.4% on cytochrome bo3 [1]. Besides, the “Ki^app fold lower compared to AD4-1” value on cytochrome bd-I (cytochrome bd-I) was determined as 45 fold.

Turning to `CCCCCCCCCCCc1cc(=O)c2ccccc2[nH]1` [AD0-11], the remaining activity at 250 µM at cytochrome bd-I was > 30%; on cytochrome bd-II, 8.4 ± 0.36%; at cytochrome bo3 [1] it was 23%. Moreover, the “Rest activity in % of control activity bo3” value on cytochrome bo3 [1] is 23.3 ± 2.3%.

As for `Cc1cc(O)c2ccccc2n1` [Compound 2-MQ, 2-methyl-4-quinolinol, reference compound], the remaining activity at 250 µM is > 30% at cytochrome bd-I, 17.8 ± 0.55% on cytochrome bd-II and 64.2 ± 2.6% at cytochrome bo3 [1].

As for `CCCCc1c(C)[nH]c2ccccc2c1=O` [AD4-1], the remaining activity at 250 µM at cytochrome bd-I was determined as 5.8 ± 0.39%; at cytochrome bd-II it was 1.33 ± 0.26%; on cytochrome bo3 [1] it was 69.7 ± 4.3%.

Take `CCCCCCCCCCCc1[nH]c2ccccc2c(=O)c1CCC` [AD3-11]: the remaining activity at 250 µM came out at 0.453 ± 0.28% at cytochrome bd-I, 1.45 ± 0.18% on cytochrome bd-II and 47.1 ± 7% at cytochrome bo3 [1]. Besides, at cytochrome bd-I (cytochrome bd-I), the “fold higher inhibitory potential compared to AD0-11” value was 188 fold. In addition, on cytochrome bd-I (selectivity bd-I over bo3), the “ratio Ki^app-bo3 vs. Ki^app-bd-I” value was “around 300”. Also, the inhibition at 250 µM at cytochrome bo3 [1] (at 250 µM, read-out: inhibitory effect on cytochrome bo3) was ~50%. The Ki on cytochrome bo3 [1] is > 100000 nM.

On to `CCCCCCCCc1c(C)[nH]c2ccccc2c1=O` [AD8-1], for which the figures for the remaining activity at 250 µM at cytochrome bd-I, on cytochrome bd-II and at cytochrome bo3 [1] were 3.59 ± 0.11%, 1.36 ± 0.21% and 94.6 ± 3.6%, respectively. Moreover, the “increase of Ki^app value compared to AD7-2” value at cytochrome bd-I (cytochrome bd-I) is on record as “sixfold”.

Take `CCCCCCCCCCCc1c(CC)c(=O)c2ccccc2n1O` [AC2-11]: the Ki on cytochrome bd is 440 nM; on cytochrome bd-I, 34 ± 6 nM; at cytochrome bo3 [4], 46 nM; at cytochrome bo3 [1] it was 31 ± 6 nM. Also, the remaining activity at 250 µM stood at 1.09 ± 0.09% on cytochrome bd-I, 0.73 ± 0.21% on cytochrome bd-II and 0.445 ± 0.08% at cytochrome bo3 [1].

Consider `CCCCCCCCCCCc1c(CCCC)c(=O)c2ccccc2n1O` [AC4-11], for which the Ki was 340 nM at cytochrome bd, 106 ± 13 nM on cytochrome bd-I and 144 nM on cytochrome bo3 [4]. The remaining activity at 250 µM was 1.19 ± 0.42% at cytochrome bd-I, 2.14 ± 0.35% at cytochrome bd-II and 0.863 ± 0.29% on cytochrome bo3 [1].

In the case of `CCCCCCCc1cc(O)c2ccccc2[n+]1[O-]` [HQNO, 2-heptyl-4-quinolinol 1-oxide, reference compound], the remaining activity at 250 µM at cytochrome bd-I is 7.29 ± 0.45%; at cytochrome bd-II, 6.44 ± 1.3%; at cytochrome bo3 [1] it was 4.53 ± 0.58%. Besides, the Ki was determined as 3600 ± 500 nM on cytochrome bd-I and 2600 ± 400 nM at cytochrome bo3 [1].

With `CC(C)=CCC/C(C)=C/CC/C(C)=C/Cc1c(C)n(O)c2ccccc2c1=O` [AurC, Aurachin C], the minimum inhibitory concentration in the test on B. subtilis was 0.15 µg/mL (≈ 0.395 µM).

Take `CCCCCc1c(C)[nH]c2ccccc2c1=O` [AD5-1]: the values for the remaining activity at 250 µM at cytochrome bd-I, on cytochrome bd-II and on cytochrome bo3 [1] were 4 ± 0.13%, 1.85 ± 0.18% and 70.4 ± 1.5%, respectively.

Turning to `CCCCCCCCCCc1c(C)c(=O)c2ccccc2n1O` [AC1-10], the results for the Ki on cytochrome bd, on cytochrome bd-I and at cytochrome bo3 [4] were 280 nM, 82 ± 11 nM and 13 nM, respectively. For the same compound, the remaining activity at 250 µM at cytochrome bd-I was determined as 1.39 ± 0.19%; at cytochrome bo3 [1] it was 0.626 ± 0.08%.

For the compound `CCCCCCCCCCCc1cc(=O)c2ccccc2[nH]1` [AD11-0, 2-undecylquinolone], in test [5], the pIC50 was 6.66.

For “2-(2-Heptyl)-3-methyl-4(1H)-quinolone [AD7-1]”, the “Rest activity in % of control activity bd-I” value at cytochrome bd-I turned out to be 4.90 ± 1.5%; at cytochrome bd-I (listed as AD7-1*), 3.46 ± 0.17%. The “Rest activity in % of control activity bd-II” value on cytochrome bd-II amounted to 1.18 ± 0.12%; on cytochrome bd-II (listed as AD7-1*), 1.71 ± 0.48%. Besides, the “Rest activity in % of control activity bo3” value on cytochrome bo3 [1] is recorded as 63.6 ± 1.3%; at cytochrome bo3 [1] (listed as AD7-1*), 47.0 ± 1.9%.

Turning to `CCCCCCc1c(C)[nH]c2ccccc2c1=O` [AD6-1], the remaining activity at 250 µM worked out at 3.45 ± 0.19% on cytochrome bd-I, 1.3 ± 0.17% on cytochrome bd-II and 73.2 ± 1.7% on cytochrome bo3 [1].

These data come from paper PMC8668966, “Short-chain aurachin D derivatives are selective inhibitors of E. coli cytochrome bd-I and bd-II oxidases” (Scientific Reports, 2021).
